Data set [1] can be described thus: Evaluation of molecule stability (alkali treatment, LC/MS residual rate). Particulars: 500 μM peptide plus equivalent of 1 M sodium hydroxide, 15° C., 20 minutes, LC/MS peak area. It counts as physicochemical. The procedure: The molecule stability of the cyclic peptide was evaluated by analyzing the alkali-treated cyclic peptide aqueous solution by liquid chromatography mass spectroscopy (LC/MS).
The alkali treatment was carried out by the following method. A 500 μM cyclic peptide aqueous solution was prepared, an equivalent of 1 M sodium hydroxide aqueous solution was added to this aqueous solution, and the resultant mixture was incubated at 15° C. for 20 minutes to obtain an alkali-treated cyclic peptide aqueous solution. The cyclic peptide residual rate was calculated by setting the total area of all peaks of the cyclic peptide before alkali treatment in LC/MS to 100% and determining the proportion of the total area of all peaks in LC/MS of the alkali-treated cyclic peptide aqueous solution, and the molecule stability was evaluated according to the following evaluation standards. It is preferable that the evaluation result satisfies the evaluation standard A, B, or C.
The conditions of the LC/MS used for the evaluation of molecule stability were set as follows. • LC apparatus: Prominence series (pump, column oven, autosampler, detector) (manufactured by Shimadzu Corporation) • MS detector: LC/MS2010EV (manufactured by Shimadzu Corporation) • Column: Cadenza CD-C18, inner diameter 2.0 mm×length 250 mm, particle size: 3 μm (manufactured by Imtakt Corporation) • Eluent A: a solution (pH 3) containing 10 mM ammonium formate as a solute, where the solvent is 100% water. • Eluent B: a solution (pH 3) containing 10 mM ammonium formate as a solute, where the solvent is acetonitrile/water=90/10. • Flow rate: 0.2 mL/min • Injection volume: 4 μL • Gradient: 0% to 30%: Eluent B (0 to 30 minutes), 100%: Eluent B (30 to 40 minutes), 0%: Eluent B (40 to 60 minutes)(B indicates the eluent B) • Column temperature: 45° C. • Ionization method: electrospray ionization (ESI) positive, ESI negative

Another data set deals with human integrin αvβ5 (Homo sapiens, UniProt P06756+P18084). Nature of the data set: Evaluation of integrin binding property (surface plasmon resonance, Biacore 3000, immobilized cyclic peptide). Particulars: peptide immobilized on CM5 sensor chip; human integrin αvβ5 30-1,000 nM, 25° C., HEPES buffer with 5 mM magnesium chloride; read-out: Integrin binding property (dissociation constant). The procedure:
A commercially available CM5 sensor chip (a carboxymethyl dextran introduction type, manufactured by GE Healthcare) was set in a surface plasmon resonance apparatus (product name: Biacore 3000, manufactured by GE Healthcare), the sensor was stabilized at a flow rate of 10 μL/min of a 4-(2-hydroxyethyl)-1-piperazineethanesulfonic acid (HEPES) buffer solution (20 mM HEPES-HCl, 150 mM NaCl, pH 7.4) for surface plasmon resonance (SPR), and 70 μL of a mixed aqueous solution of 0.2 M 1-(3-dimethylaminopropyl)-3-ethylcarbodiimide (EDC) and 0.04 M N-hydroxysuccinimide (NHS) was added thereto. Then, 300 μL of the sample solution of each of the above cyclic peptides diluted to 0.2 g/L with the HEPES buffer solution was supplied to the sensor chip, blocking treatment was subsequently carried out with an ethanolamine solution, and washing was carried out with a sodium hydroxide aqueous solution, whereby immobilization was carried out. However, only for the cyclic peptide 22, in which the number of lysine residues having an amino group as the immobilizing functional group was 1, the sample solution to be supplied to the sensor chip was set to 5,000 μL instead of 300 μL. Similarly; 70 μL of the mixed aqueous solution of 0.2 M EDC and 0.04 M NHS was added to another flow channel of the same sensor chip without immobilizing the sample, and then blocking treatment and washing treatment were carried out. Hereinafter, the obtained immobilization-treated sensor chip is referred to as an “immobilization-treated sensor chip A”.
After adding human integrin αvβ5 for 10 minutes at 25° C., which was diluted to 30 nM using a HEPES buffer solution to which magnesium chloride was added to 5 mM, in each flow channel of the immobilization-treated sensor chip A prepared in (1) above, the same HEPES buffer solution (containing 5 mM magnesium chloride) was allowed to flow as a running buffer for 30 minutes, and measurement was carried out with Biacore 3000.
Then, a regeneration treatment of removing human integrin αvβ5 was carried out by allowing a 0.5 M EDTA aqueous solution to flow through each flow channel for 10 minutes. Further, the above-described measurement process consisting of adding integrin for 10 minutes, allowing a running buffer to flow for 30 minutes, carrying out measurement with Biacore 3000, and carrying out regeneration treatment with 0.5 M EDTA aqueous solution was carried out in the same manner for 100 nM human integrin αvβ5, 300 nM human integrin αvβ5, and 1,000 nM human integrin αvβ5. Dissociation constant between the cyclic peptide and human integrin αvβ5 was calculated from the difference between the value measured by Biacore 3000 in the flow channel immobilized with the cyclic peptide and the value measured by Biacore 3000 in the flow channel unimmobilized with the cyclic peptide, in a case where each concentration of human integrin αvβ5 was allowed to flow; and the integrin binding property was evaluated according to the following evaluation standards. It is preferable that the evaluation result satisfies the evaluation standard A, B, or C.
Background: In SPR one partner is held on a chip, and binding of the other changes the refractive index at the surface.

Molecules are shown by their SMILES. pKd: −log10 of the molar value. Numbered stars: 1 amine (or outer) side, 2 acyl side, 3 side chain; on linkers, the order of the positions; unused ones are H or OH. Bridge positions count the residues as written; N and C are the ends. Square brackets hold non-standard residues; d marks the D form. Peptide text beside a SMILES is read from it. hCys = N[C@@H](CCS)C(=O)O; Orn = NCCC[C@H](N)C(=O)O; Dab = NCC[C@H](N)C(=O)O; Dap = NC[C@H](N)C(=O)O; X1 = O=C(C[*:1])[*:2]; X2 = O=C(C[*:2])[*:1] A value given as a limit tells only on which side of the number the result lay.

human integrin αvβ5, sequence (P06756 31-889 limits assumed): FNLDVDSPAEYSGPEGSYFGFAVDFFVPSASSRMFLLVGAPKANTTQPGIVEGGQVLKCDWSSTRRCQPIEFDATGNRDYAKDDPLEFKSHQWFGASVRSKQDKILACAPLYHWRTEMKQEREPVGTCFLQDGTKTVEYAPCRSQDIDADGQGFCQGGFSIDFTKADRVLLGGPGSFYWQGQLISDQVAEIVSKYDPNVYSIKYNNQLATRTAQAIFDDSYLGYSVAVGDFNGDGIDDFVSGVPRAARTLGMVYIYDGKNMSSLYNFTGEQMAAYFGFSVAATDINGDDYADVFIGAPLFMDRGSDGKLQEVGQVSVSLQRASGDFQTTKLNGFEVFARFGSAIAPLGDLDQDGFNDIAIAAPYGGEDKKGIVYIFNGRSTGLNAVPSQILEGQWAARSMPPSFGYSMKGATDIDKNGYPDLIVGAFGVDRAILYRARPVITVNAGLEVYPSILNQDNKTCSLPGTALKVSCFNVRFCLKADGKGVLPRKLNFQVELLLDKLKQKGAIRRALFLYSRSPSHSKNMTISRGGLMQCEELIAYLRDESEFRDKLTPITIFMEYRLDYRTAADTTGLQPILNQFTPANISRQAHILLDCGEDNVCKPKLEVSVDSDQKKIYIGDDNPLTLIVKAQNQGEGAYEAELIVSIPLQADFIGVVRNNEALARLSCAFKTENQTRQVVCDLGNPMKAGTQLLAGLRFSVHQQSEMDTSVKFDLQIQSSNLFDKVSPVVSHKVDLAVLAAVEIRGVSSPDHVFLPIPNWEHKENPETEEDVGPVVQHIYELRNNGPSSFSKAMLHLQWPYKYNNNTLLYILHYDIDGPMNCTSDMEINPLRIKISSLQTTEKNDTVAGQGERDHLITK
human integrin αvβ5, sequence (P06756 891-1048 partner limits assumed): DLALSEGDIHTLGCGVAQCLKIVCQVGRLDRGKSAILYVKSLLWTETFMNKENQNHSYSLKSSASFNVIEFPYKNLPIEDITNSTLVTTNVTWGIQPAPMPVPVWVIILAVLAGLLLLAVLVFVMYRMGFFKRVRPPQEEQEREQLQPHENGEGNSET
human integrin αvβ5, sequence (P18084 24-799): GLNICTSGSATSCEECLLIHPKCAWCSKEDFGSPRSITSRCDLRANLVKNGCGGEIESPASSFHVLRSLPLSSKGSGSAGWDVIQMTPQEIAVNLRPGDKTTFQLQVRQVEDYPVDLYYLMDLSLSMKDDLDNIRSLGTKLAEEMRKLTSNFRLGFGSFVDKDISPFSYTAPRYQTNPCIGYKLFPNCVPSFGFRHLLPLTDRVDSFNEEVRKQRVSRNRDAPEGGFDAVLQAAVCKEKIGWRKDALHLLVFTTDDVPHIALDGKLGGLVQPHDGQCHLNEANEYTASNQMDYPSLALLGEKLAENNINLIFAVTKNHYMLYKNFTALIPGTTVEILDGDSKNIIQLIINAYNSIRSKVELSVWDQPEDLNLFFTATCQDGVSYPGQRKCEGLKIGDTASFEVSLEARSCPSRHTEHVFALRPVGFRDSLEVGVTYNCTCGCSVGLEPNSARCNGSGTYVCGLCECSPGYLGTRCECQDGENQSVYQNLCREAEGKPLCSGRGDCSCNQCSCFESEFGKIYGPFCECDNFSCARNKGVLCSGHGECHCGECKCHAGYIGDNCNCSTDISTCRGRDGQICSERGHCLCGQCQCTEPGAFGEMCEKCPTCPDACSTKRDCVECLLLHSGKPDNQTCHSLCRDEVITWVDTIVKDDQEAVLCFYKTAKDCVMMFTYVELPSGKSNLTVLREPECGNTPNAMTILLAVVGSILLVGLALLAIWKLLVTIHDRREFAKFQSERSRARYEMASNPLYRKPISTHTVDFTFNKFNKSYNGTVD

As for `CC[C@H](C)[C@@H]1NC(=O)CSCC[C@@H](C(=O)N[C@@H](CCCCN)C(=O)N[C@@H](CCCCN)C(=O)N[C@@H](CCCCN)C(=O)O)NC(=O)[C@H](Cc2ccccc2)NC(=O)[C@@H]2CCSCC(=O)NC[C@H](NC1=O)C(=O)N[C@@H](CCCNC(=N)N)C(=O)NCC(=O)N[C@@H](CC(=O)O)C(=O)N2` [Cyclic peptide 1] ({CH2CO}-I[Dap]RGD[hCys]F[hCys]KKK-OH; linker 2-6 via X2; thioether N-8), the “Molecule stability (cyclic peptide residual rate)” value in data set [1] was “A (The residual rate of the cyclic peptide is 70% or more.)”. Besides, the pKd at human integrin αvβ5 was 7.00 to 7.30.
In the case of `CC[C@H](C)[C@@H]1NC(=O)CSCC[C@@H](C(=O)N[C@@H](CCCCN)C(=O)N[C@@H](CCCCN)C(=O)N[C@@H](CCCCN)C(=O)O)NC(=O)[C@H](Cc2ccccc2)NC(=O)[C@@H]2CCSCC(=O)NCC[C@H](NC1=O)C(=O)N[C@@H](CCCNC(=N)N)C(=O)NCC(=O)N[C@@H](CC(=O)O)C(=O)N2` [Cyclic peptide 2] ({CH2CO}-I[Dab]RGD[hCys]F[hCys]KKK-OH; linker 2-6 via X2; thioether N-8), the “Molecule stability (cyclic peptide residual rate)” value in data set [1] is “A (The residual rate of the cyclic peptide is 70% or more.)”. Also, the pKd on human integrin αvβ5 was 6.70 to 7.00.
With `CC[C@H](C)[C@@H]1NC(=O)CSCC[C@@H](C(=O)N[C@@H](CCCCN)C(=O)N[C@@H](CCCCN)C(=O)N[C@@H](CCCCN)C(=O)O)NC(=O)[C@H](Cc2ccccc2)NC(=O)[C@@H]2CCSCC(=O)NCCC[C@H](NC1=O)C(=O)N[C@@H](CCCNC(=N)N)C(=O)NCC(=O)N[C@@H](CC(=O)O)C(=O)N2` [Cyclic peptide 3] ({CH2CO}-I[Orn]RGD[hCys]F[hCys]KKK-OH; linker 2-6 via X2; thioether N-8), in data set [1], the “Molecule stability (cyclic peptide residual rate)” value was “A (The residual rate of the cyclic peptide is 70% or more.)”. In addition, the pKd on human integrin αvβ5 is above 7.30.
With `CC[C@H](C)[C@@H]1NC(=O)CSCC[C@@H](C(=O)N[C@@H](CCCCN)C(=O)N[C@@H](CCCCN)C(=O)N[C@@H](CCCCN)C(=O)O)NC(=O)[C@H](Cc2ccccc2)NC(=O)[C@@H]2CCSCC(=O)NCCCC[C@H](NC1=O)C(=O)N[C@@H](CCCNC(=N)N)C(=O)NCC(=O)N[C@@H](CC(=O)O)C(=O)N2` [Cyclic peptide 4] ({CH2CO}-IKRGD[hCys]F[hCys]KKK-OH; linker 2-6 via X2; thioether N-8), the “Molecule stability (cyclic peptide residual rate)” value in data set [1] is given as “A (The residual rate of the cyclic peptide is 70% or more.)”. Besides, the pKd on human integrin αvβ5 is 7.00 to 7.30.
Consider `CC[C@H](C)[C@@H]1NC(=O)CSCC[C@@H](C(=O)N[C@@H](CCCCN)C(=O)N[C@@H](CCCCN)C(=O)N[C@@H](CCCCN)C(=O)O)NC(=O)[C@H](Cc2ccccc2)NC(=O)[C@@H]2CNC(=O)CSCC[C@H](NC1=O)C(=O)N[C@@H](CCCNC(=N)N)C(=O)NCC(=O)N[C@@H](CC(=O)O)C(=O)N2` [Cyclic peptide 5] ({CH2CO}-I[hCys]RGD[Dap]F[hCys]KKK-OH; linker 2-6 via X1; thioether N-8), for which the “Molecule stability (cyclic peptide residual rate)” value in data set [1] is “A (The residual rate of the cyclic peptide is 70% or more.)”. In addition, on human integrin αvβ5, the pKd was 7.00 to 7.30.
Turning to `CC[C@H](C)[C@@H]1NC(=O)CSC[C@@H](C(=O)N[C@@H](CCCCN)C(=O)N[C@@H](CCCCN)C(=O)N[C@@H](CCCCN)C(=O)O)NC(=O)[C@H](Cc2ccccc2)NC(=O)[C@@H]2CNC(=O)CSC[C@H](NC1=O)C(=O)N[C@@H](CCCNC(=N)N)C(=O)NCC(=O)N[C@@H](CC(=O)O)C(=O)N2` [Cyclic peptide 6] ({CH2CO}-ICRGD[Dap]FCKKK-OH; linker 2-6 via X1; thioether N-8), the “Molecule stability (cyclic peptide residual rate)” value in data set [1] was “B (The residual rate of the cyclic peptide is 50% or more and less than 70%.)”. For the same compound, at human integrin αvβ5, the pKd is 6.70 to 7.00.
`CC[C@H](C)[C@@H]1NC(=O)CSCC[C@@H](C(=O)N[C@@H](CCCCN)C(=O)N[C@@H](CCCCN)C(=O)N[C@@H](CCCCN)C(=O)O)NC(=O)[C@H](Cc2ccccc2)NC(=O)[C@@H]2CCNC(=O)CSCC[C@H](NC1=O)C(=O)N[C@@H](CCCNC(=N)N)C(=O)NCC(=O)N[C@@H](CC(=O)O)C(=O)N2` [Cyclic peptide 7] ({CH2CO}-I[hCys]RGD[Dab]F[hCys]KKK-OH; linker 2-6 via X1; thioether N-8): the “Molecule stability (cyclic peptide residual rate)” value in data set [1] is listed as “A (The residual rate of the cyclic peptide is 70% or more.)”. Besides, the pKd on human integrin αvβ5 is 7.00 to 7.30.
On to `CC[C@H](C)[C@@H]1NC(=O)CSC[C@@H](C(=O)N[C@@H](CCCCN)C(=O)N[C@@H](CCCCN)C(=O)N[C@@H](CCCCN)C(=O)O)NC(=O)[C@H](Cc2ccccc2)NC(=O)[C@@H]2CCNC(=O)CSC[C@H](NC1=O)C(=O)N[C@@H](CCCNC(=N)N)C(=O)NCC(=O)N[C@@H](CC(=O)O)C(=O)N2` [Cyclic peptide 8] ({CH2CO}-ICRGD[Dab]FCKKK-OH; linker 2-6 via X1; thioether N-8), for which the “Molecule stability (cyclic peptide residual rate)” value in data set [1] was “B (The residual rate of the cyclic peptide is 50% or more and less than 70%.)”. At human integrin αvβ5, the pKd was above 7.30.
As to `CC[C@H](C)[C@@H]1NC(=O)CSCC[C@@H](C(=O)N[C@@H](CCCCN)C(=O)N[C@@H](CCCCN)C(=O)N[C@@H](CCCCN)C(=O)O)NC(=O)[C@H](Cc2ccccc2)NC(=O)[C@@H]2CCCNC(=O)CSCC[C@H](NC1=O)C(=O)N[C@@H](CCCNC(=N)N)C(=O)NCC(=O)N[C@@H](CC(=O)O)C(=O)N2` [Cyclic peptide 9] ({CH2CO}-I[hCys]RGD[Orn]F[hCys]KKK-OH; linker 2-6 via X1; thioether N-8), the “Molecule stability (cyclic peptide residual rate)” value in data set [1] was “A (The residual rate of the cyclic peptide is 70% or more.)”. The pKd on human integrin αvβ5 was 7.00 to 7.30.
`N=C(N)NCCC[C@@H]1NC(=O)[C@@H]2CNC(=O)CSCC[C@H](NC(=O)[C@H](CC(=O)O)NC(=O)CNC1=O)C(=O)N[C@@H](Cc1ccccc1)C(=O)N[C@H](C(=O)N[C@@H](CCCCN)C(=O)N[C@@H](CCCCN)C(=O)N[C@@H](CCCCN)C(=O)O)CCSCC(=O)N[C@@H](CCCCN)C(=O)N2` [Cyclic peptide 21] ({CH2CO}-K[Dap]RGD[hCys]F[hCys]KKK-OH; linker 2-6 via X2; thioether N-8; N-terminus and C-terminus assumed): in data set [1], the “Molecule stability (cyclic peptide residual rate)” value is given as “A (The residual rate of the cyclic peptide is 70% or more.)”.
`N=C(N)NCCC[C@@H]1NC(=O)[C@@H]2CSSC[C@H](NC(=O)[C@H](CC(=O)O)NC(=O)CNC1=O)C(=O)N[C@@H](Cc1ccccc1)C(=O)N[C@H](C(=O)N[C@@H](CCCCN)C(=O)N[C@@H](CCCCN)C(=O)N[C@@H](CCCCN)C(=O)O)CSCC(=O)N[C@@H](CCCCN)C(=O)N2` [Cyclic peptide 48, reference compound] ({CH2CO}-KCRGDCFCKKK-OH; disulfide 2-6; thioether N-8; N-terminus and C-terminus assumed): the “Molecule stability (cyclic peptide residual rate)” value in data set [1] is reported as “D (The residual rate of the cyclic peptide is less than 30%.)”.

The values are drawn from patent publication US12624067B2, “Cyclic peptide, cell scaffold material, cell separating material, and medium” (FUJIFILM Corporation, priority 2019, dated 2026).
